Test results published in patent publication US6673902B2, “Cyclin D binding factor, and uses thereof” (St. Jude Children's Research Hospital, priority 1996, dated 2004).

Experiments:
[1] = molecular target: T1, recombinant DMP1 (Mus musculus, UniProt Q8CE22); assay: EMSA competition with Sf9 lysates producing recombinant DMP1; format: binding; conditions: excess unlabeled oligonucleotide
T1 construct: made in house; host or cells: Sf9 insect cells, pAcYM1 baculovirus vector; used as crude lysate (~4 ng DMP1 per reaction)
T1 sequence (Q8CE22 1-761): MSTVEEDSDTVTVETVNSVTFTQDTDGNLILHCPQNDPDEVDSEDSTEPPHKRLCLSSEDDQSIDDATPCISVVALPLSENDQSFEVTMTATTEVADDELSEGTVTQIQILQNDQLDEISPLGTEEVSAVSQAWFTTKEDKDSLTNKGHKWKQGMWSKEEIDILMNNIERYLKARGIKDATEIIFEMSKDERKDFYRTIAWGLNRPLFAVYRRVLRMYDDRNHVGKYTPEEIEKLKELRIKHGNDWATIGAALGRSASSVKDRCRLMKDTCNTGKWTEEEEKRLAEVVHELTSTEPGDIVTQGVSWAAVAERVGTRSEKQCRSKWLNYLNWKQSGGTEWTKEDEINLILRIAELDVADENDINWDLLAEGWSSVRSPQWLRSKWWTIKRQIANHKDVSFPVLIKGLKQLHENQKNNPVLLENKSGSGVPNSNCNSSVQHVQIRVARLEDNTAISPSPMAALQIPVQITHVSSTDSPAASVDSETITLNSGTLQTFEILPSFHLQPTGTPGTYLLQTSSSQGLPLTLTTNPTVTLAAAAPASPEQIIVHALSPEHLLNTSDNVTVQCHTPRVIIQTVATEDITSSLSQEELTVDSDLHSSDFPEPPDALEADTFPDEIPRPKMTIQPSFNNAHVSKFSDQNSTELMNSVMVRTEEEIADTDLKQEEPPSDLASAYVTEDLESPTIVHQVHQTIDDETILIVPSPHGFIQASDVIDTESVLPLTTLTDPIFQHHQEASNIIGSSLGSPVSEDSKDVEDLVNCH
Experimental: (§1) Double-stranded oligonucleotides containing potential DMP1 binding sites (BS1 and BS2) and mutated versions (M1-M4) (FIG. 5B) are end-labeled with ^32P using the Klenow fragment of DNA polymerase and α-^32P-dATP (6000 Ci/mmol; Dupont NEN) (8). Nuclear extracts from mouse NIH-3T3 or CTLL cells are prepared with buffer containing 0.4 M NaCl (2). Mammalian cell extracts (15 μg protein) or Sf9 lysates (corresponding to 5×10^2 infected cells) containing ˜4 ng recombinant DMP1 are mixed with 3 ng of ^32P-labeled probe (1×10^5 cpm) in 15 ul Binding buffer containing 2.5 μg of poly(dI-dC) and 2.5 μg BSA and incubated at 4° C. for 30 minutes. For competition experiments, the indicated amounts of unlabeled oligonucleotides are added to the reactions before addition of the labeled probe. In some experiments, a bacterially produced GST-Ets2 fusion protein containing the complete Ets2 DNA-binding domain (10) is used in place of Sf9 extracts containing recombinant DMP1. Protein-DNA complexes are separated on nondenaturing 4% polyacrylamide gels as described (8). Where indicated, antiserum to DMP1 together with 2.5 μg salmon testis DNA (Sigma; used to reduce nonspecific DNA binding activity caused by serum addition) is preincubated with extracts for 30 minutes at 4° C. prior to initiation of binding reactions. Immune complexes are either removed by adsorption to protein A-Sepharose beads (immunodepletion experiments) or are allowed to remain (“supershift” experiments).
(§2) Using electrophoretic mobility shift assays (EMSA) performed after mixing a titrated excess (3 ng) of ^32P-end labeled BS1 probe with Sf9 lysates producing DMP1 (˜4 ng recombinant protein per reaction), a BS1-containing protein complex is detected that was competed with an excess of unlabeled BS1 oligonucleotide but not with mutant oligonucleotides M1 and M2 (FIG. 6A). […] More subtle mutations within this region may be tolerated, because high concentrations of M4 competed for BS1 binding to both Ets2 and DMP1 in subsequent studies (FIG. 5B and see below). DMP1 also binds a BS2 probe, and the binding is competed by excess BS2 or BS1 (FIG. 6B). In agreement with the site selection frequencies (FIG. 5A), binding of ^32P-BS1 under equivalent conditions was competed more efficiently by excess unlabeled BS1 than by BS2 (FIG. 6B). […] In agreement, Ets2 binding to BS1 could be competed with excess unlabeled BS1 and M3, but not by BS2 (FIG. 6C). Therefore, although both DMP1 and Ets2 can each bind to BS1 sequences, their exclusive interactions with BS2 and M3, respectively, help to distinguish DMP1 and Ets binding activities (summarized in FIG. 5B).

[2] = system: 32P-BS2 Probe; assay: EMSA with 32P-BS2 probe on transfection lysates of NIH-3T3 fibroblasts; format: binding; conditions: EMSA, 32P-BS2 probe, lysates of transfected NIH-3T3 fibroblasts
Experimental: as §1
A series of deletion mutants and a point mutant of DMP1, K319E, (in which the lysine at position 319 of SEQ ID NO:1 is replaced by a glutamic acid) were prepared and used to determine the DNA-binding domain of DMP1 by electrophoretic mobility shift assay (EMSA) using a ^32P labeled BS2 probe. The DNA-binding domain of DMP1 was mapped to a central region containing the three MYB repeats plus adjacent flanking sequences: a BstEII to NcoI fragment encoding amino acids 87-458 of SEQ ID NO:1 (Table 1). This region alone was necessary and sufficient for DNA binding.

[3] = system: DMP1-responsive promoter (pGL2BS2); assay: Transactivation of luciferase reporter plasmid under control of a DMP1-responsive promoter in NIH-3T3 fibroblasts; format: cell-based, mouse; conditions: expression vector 3 μg/10 ml, pGL2BS2 8 μg/10 ml; vector without insert set to 1.0
From the text: Coexpression of a D-type cyclin with DMP1 overrides the ability of DMP1 to transactivate a luciferase gene under the control of an artificial DMP1-responsive promoter (Table 4), as well as the ability of DMP1 to inhibit cell growth.

[4] = system: NIH-3T3 fibroblasts; assay: BrdU incorporation in transfected NIH-3T3 fibroblasts; format: cell-based, mouse; conditions: for % Cells BrdU Positive: Table 2, expression vector 3 μg/10 ml; for % Cells BrdU Positive in 10% FCS: nonstarved cells; for % Cells BrdU Positive in 10% FCS / % Cells BrdU Positive in 0.1% FCS: additive None, labeled 22 hours; for % Cells BrdU Positive in 0.1% FCS: starved cells
Experimental: BrdU is added to NIH-3T3 cells after the experimental treatment and the cells were incubated for twenty-two hours in DMEM plus 10% fetal calf serum (FCS). The cells were then stained for DMP1 expression and/or BrdU incorporation. The nucleic acids encoding the wildtype DMP1 and the deletion and point mutants had been constructed so as to express the corresponding proteins with Flag-tags. To stain for DMP1 expression, mouse monoclonal anti-Flag antibodies (12 μg/ml) [Kodak] were incubated with the cells in TBS-Ca^+ without FCS for one hour at room temperature. After washing the cells, horse anti-mouse biotinylated antibodies at a 1:500 dilution were added to the cells in TBS plus 5% FCS and incubated for 30 minutes at room temperature. After washing the cells, strefptavidin linked to Texas red [Amersham] was then added at a 1:500 dilution for 30 minutes at room temperature. To stain for BrdU incorporation, 1.5N HCl was added to the cells for ten minutes at room temperature to denature the DNA. After washing the cells, sheep anti-BrdU antibodies [Fitzgerald] at a 1:12 dilution were then added for one hour at room temperature. After washing the cells, rabbit FITC-conjugated anti-sheep antibodies [Vector] at 1:100 dilution was then incubated for 30 minutes at room temperature.
NIH-3T3 cells were placed on cover slides and transfected with the expression vectors (pFLEX-DMP1 or the corresponding vector containing the deletion or point mutants of mouse DMP1 plus or minus cyclin D or E) for fourteen hours. The cells were then washed twice and DMEM plus 10% FCS was added and the cells incubated for eight hours. Half of the cells were starved by washing twice with 0.1% FCS, and then incubated for twenty-four hours in 0.1% FCS in DMEM. The remaining cells were not starved but were incubated for twenty-four hours in DMEM plus 10% FCS without washing. BrdU was added to both groups of cells and the cells were incubated for twenty-two hours in DMEM plus 10% FCS.
The cells were then restimulated to enter the cell cycle synchronously with DMEM plus 10% FCS. At the same time, 5′-Bromo-2′ Deoxyuridine (BrdU) was added to the medium. The cells were fixed 22 hours later in methanol acetone (1:1) and stained for BrdU incorporation and DMP1 expression as described in the Materials and Methods.

[5] = molecular target: T2, GST-Ets2 fusion protein (Homo sapiens, UniProt P15036); assay: EMSA competition with bacterial GST-Ets2 fusion protein; format: binding; conditions: excess unlabeled oligonucleotide
T2 construct: made in house; host or cells: bacteria
T2 sequence (P15036 363-443 limits assumed): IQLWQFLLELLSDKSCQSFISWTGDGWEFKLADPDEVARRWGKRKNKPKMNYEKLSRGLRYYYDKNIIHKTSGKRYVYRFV
Experimental: as §1, §2

[6] = molecular target: T3, cyclin D1 (Mus musculus, UniProt P25322); assay: Flag immunoprecipitation from SF9 lysates and Western blot for cyclin D1; format: binding; conditions: cotransfected with cyclin D1 in SF9 cells
T3 construct: expressed in transfected cells; host or cells: SF9 insect cells
T3 sequence (P25322 whole entry): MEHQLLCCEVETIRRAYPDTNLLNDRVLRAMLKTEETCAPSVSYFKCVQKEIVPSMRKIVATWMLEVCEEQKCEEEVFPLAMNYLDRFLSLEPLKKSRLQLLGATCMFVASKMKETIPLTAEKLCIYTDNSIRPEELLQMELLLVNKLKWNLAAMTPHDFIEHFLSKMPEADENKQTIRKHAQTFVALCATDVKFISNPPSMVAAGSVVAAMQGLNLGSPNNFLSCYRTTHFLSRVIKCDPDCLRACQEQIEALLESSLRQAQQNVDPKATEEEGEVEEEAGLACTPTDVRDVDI
From the text: The series of DMP1 deletion mutants and the K319E point mutant were then used to determine the cyclin D binding domain of DMP1. Expression vectors encoding murine wild-type DMP1, the corresponding deletion mutations, or K319E (i.e., wildtype DMP1 and M1-M11, defined in FIG. 10, Table 1) were cotransfected with an expression vector encoding cyclin D1 into SF9 cells. Wildtype DMP1 and M1-M11 were expressed containing Flag-tags. SF9 lysates were immunoprecipitated with an antibody raised against the Flag-tag. The immunoprecipitates were resolved individually by gel electrophoresis, and then Western blotted with an antibody raised against cyclin D1. […] Therefore, deletion of the N-terminal domain of DMP1 (i.e., amino acids 1-223) abrogates its ability to interact with D-type cyclins, and thus, the region of DMP1 from residues 1-223 contains a specific cyclin D interaction motif required for D-type cyclin-DMP1 association.

| Substance | competition for 32P-BS1 probe binding to DMP1 [1] | Luciferase Activity [3] | band corresponding to cyclin D1 in Flag immunoprecipitate [6] | 32P-labeled Band [2] | % Cells BrdU Positive [4] | competition for BS1 binding to Ets2 [5] | % Cells BrdU Positive in 10% FCS [4] | % Cells BrdU Positive in 0.1% FCS [4] | competition for BS2 probe binding to DMP1 [1] |
| --- | --- | --- | --- | --- | --- | --- | --- | --- | --- |
| M2: DMP1 deletion mutant (StuI), amino acids 1-520 of SEQ ID NO:1 | not | 3.6 |  | Yes | 20% |  |  |  |  |
| M4: DMP1 deletion mutant (BstBI), amino acids 1-380 of SEQ ID NO:1 | competed | 1.0 |  | No | 52% | competed |  |  |  |
| M5: DMP1 deletion mutant (XbaI and BstEII), amino acids 87-761 of SEQ ID NO:1 |  | 6.2 | particularly faint | Yes | 32% |  |  |  |  |
| M7: DMP1 deletion mutant, amino acids 1-169; 238-761 of SEQ ID NO:1 |  | 0.9 |  | No | 36% |  |  |  |  |
| M9: DMP1 5′ deletion mutant, amino acids 234-761 of SEQ ID NO:1 |  | 1.0 | cyclin D1 binding domain is missing | No | 50% |  |  |  |  |
| oligonucleotide BS1: probe/competitor BS1, SEQ ID NO:10, DMP1 binding site with GGA core (DNA AATTGACCCGGATGTAGGTACGC; chemistry not given here) | competed |  |  |  |  | competed |  |  | competed |

More lines, main results first:

| competition for 32P-BS1 probe binding to DMP1 [1] | Luciferase Activity [3] | band corresponding to cyclin D1 in Flag immunoprecipitate [6] | Substance | 32P-labeled Band [2] | % Cells BrdU Positive [4] | competition for BS1 binding to Ets2 [5] | % Cells BrdU Positive in 10% FCS [4] | % Cells BrdU Positive in 0.1% FCS [4] | competition for BS2 probe binding to DMP1 [1] |
| --- | --- | --- | --- | --- | --- | --- | --- | --- | --- |
| not | 6.7 |  | M1: DMP1 deletion mutant (EcoNI), amino acids 1-661 of SEQ ID NO:1 | Yes | 12% |  |  |  |  |
|  | 1.0 |  | M6: DMP1 deletion mutant, amino acids 1-86; 170-761 of SEQ ID NO:1 | No | 48% |  | 44% | 47% |  |
|  | 1.1 |  | M8: DMP1 deletion mutant, amino acids 1-237; 381-761 of SEQ ID NO:1 | No | 54% |  | 54% | 54% |  |
|  | 1.1 |  | M10: DMP1 deletion mutant (BstEII and NcoI), amino acids 87-458 of SEQ ID NO:1 | Yes | 56% |  |  |  |  |
